Laboratory results taken from patent US20050101595A1, “N-containing cycloalkyl-substituted amino-thiazole derivatives and pharmaceutical compositions for inhibiting cell proliferation and methods for their use” (PFIZER INC., priority 2003, published 2005).

Columns and labels:
CDK2/Cyclin A = CDK2/Cyclin A (Homo sapiens, UniProt P24941); assay: Inhibition of CDK2/Cyclin A Retinoblastoma Kinase Activity; assay type: biochemical
How it was run: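 CDK2 (10 or 19 nM), insect-cell expressed, gel-filtration purified with truncated cyclin A; Rb fragment substrate; 25 μM ATP; 10 mM HEPES pH 7.4, 10 mM MgCl2; 30° C, 60 or 75 min; EDTA stop; phosphocellulose/nitrocellulose capture, phosphorimager. % inhibition vs DMSO control, no-enzyme background subtracted.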

[1] = target: human CDK4 and genetically truncated (1-264) cyclin D3 (Homo sapiens, UniProt P11802); assay: Inhibition of CDK4/Cyclin D Retinoblastoma Kinase Activity; assay type: biochemical
Sequence of human CDK4 and genetically truncated (1-264) cyclin D3 (P11802 whole entry, the tested form may be a part): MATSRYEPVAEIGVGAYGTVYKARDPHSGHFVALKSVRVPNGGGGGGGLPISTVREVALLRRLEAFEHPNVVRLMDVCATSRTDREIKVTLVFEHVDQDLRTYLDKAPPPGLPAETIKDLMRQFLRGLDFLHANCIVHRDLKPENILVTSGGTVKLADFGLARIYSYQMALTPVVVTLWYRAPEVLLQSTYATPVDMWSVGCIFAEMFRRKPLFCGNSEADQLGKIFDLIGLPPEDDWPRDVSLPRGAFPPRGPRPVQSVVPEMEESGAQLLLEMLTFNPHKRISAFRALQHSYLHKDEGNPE
Sequence of human CDK4 and genetically truncated (1-264) cyclin D3 (P30281 1-264 partner): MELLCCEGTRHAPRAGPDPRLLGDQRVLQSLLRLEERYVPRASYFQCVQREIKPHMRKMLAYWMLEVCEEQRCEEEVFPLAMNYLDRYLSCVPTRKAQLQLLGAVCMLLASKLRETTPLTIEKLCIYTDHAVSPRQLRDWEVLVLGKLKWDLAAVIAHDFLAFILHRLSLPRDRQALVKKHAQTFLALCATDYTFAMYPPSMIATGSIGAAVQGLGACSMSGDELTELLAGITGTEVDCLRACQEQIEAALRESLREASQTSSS
How it was run: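 The enzyme complex (5 nM), expressed in co-infected insect cells, was incubated with recombinant Rb fragment, 25 μM radiolabelled ATP and 2% DMSO at 30 °C. Reactions were stopped with EDTA after 20 minutes, or 60 minutes for tight-binding inhibitors. Apparent Ki values came from competitive inhibition fits.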

HCT-116 cell line = assay: Inhibition of cell growth, tetrazolium salt (MTT) assay; assay type: cell-based; conditions: for HCT-116 % Inhibition at 0.25 μM: 0.25 μM compound
How it was run: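 First, cells were seeded in McCoy's 5A medium and held 4 h. Next, inhibitor concentrations in 0.5% (v/v) DMSO were applied for three to five days at 37° C, 5% CO2. Finally, after 4 h with 0.2 mg/mL MTT and medium removal, solubilized formazan was measured at 540 nm.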

[2] = 0.1 μM compound, HCT-116, Table 4

Row | SMILES | CDK2 % Inhibition at 0.03 μM (CDK2/Cyclin A; 0.03 μM compound, Table 4) [%] | CDK4 % Inhibition at 0.03 μM ([1]; 0.03 μM compound, Table 4) [%] | CDK2 % Inhibition at 0.03 μM (CDK2/Cyclin A; at 0.03 μM) [%] | CDK4 % Inhibition at 0.03 μM ([1]; at 0.03 μM) [%] | HCT-116 % Inhibition at 0.1 μM (HCT-116 cell line; [2]) [%] | HCT-116 % Inhibition at 0.25 μM (HCT-116 cell line; HCT-116, Table 4) [%] | HCT-116 % Inhibition at 0.1 μM (HCT-116 cell line; HCT-116 cells, at 0.1 μM) [%] | HCT-116 5 Inhibition at 0.25 μM (HCT-116 cell line; HCT-116 cells)
1 | CC(=O)OCC(=O)N1CCC(Nc2nc(N)c(C(=O)c3c(F)cccc3F)s2)CC1 [Example Q76] | 27 | 31 | – | – | 4 | 36 | – | –
2 | N#Cc1cccc(C(=O)N2CCC(Nc3nc(N)c(C(=O)c4c(F)cccc4F)s3)CC2)c1 [Example Q77] | 44 | 72 | – | – | 8 | 33 | – | –
3 | COc1ccc(OC)c(CC(=O)N2CCC(Nc3nc(N)c(C(=O)c4c(F)cccc4F)s3)CC2)c1 [Example Q78] | 39 | 46 | – | – | 0.43 | 37 | – | –
4 | COc1cccc(CC(=O)N2CCC(Nc3nc(N)c(C(=O)c4c(F)cccc4F)s3)CC2)c1 [Example Q79] | 51 | 59 | – | – | 5 | 33 | – | –
5 | Nc1nc(NC2CCN(C(=O)c3cccnc3)CC2)sc1C(=O)c1c(F)cccc1F [Example Q80] | 20 | 50 | – | – | 10 | 27 | – | –
6 | Nc1nc(NC2CCN(C(=O)c3ccncc3)CC2)sc1C(=O)c1c(F)cccc1F [Example Q81] | 6 | 19 | – | – | 4 | 37 | – | –
7 | Nc1nc(NC2CCN(C(=O)OCC3c4ccccc4-c4ccccc43)CC2)sc1C(=O)c1c(F)cccc1F [Example Q82] | −12 | 15 | – | – | 0 | 28 | – | –
8 | Nc1nc(NC2CCN(C(=S)Oc3ccccc3)CC2)sc1C(=O)c1c(F)cccc1F [Example Q83] | 72 | 55 | – | – | 2 | 25 | – | –
9 | Nc1nc(NC2CCN(C(=O)Oc3ccc([N+](=O)[O-])cc3)CC2)sc1C(=O)c1c(F)cccc1F [Example Q84] | 63 | 88 | – | – | 3 | 40 | – | –
10 | Nc1nc(NC2CCN(C(=O)OCc3ccc([N+](=O)[O-])cc3)CC2)sc1C(=O)c1c(F)cccc1F [Example Q85] | 42 | 55 | – | – | 1 | 31 | – | –
11 | COC(=O)c1ccc(OC(=O)N2CCC(Nc3nc(N)c(C(=O)c4c(F)cccc4F)s3)CC2)cc1 [Example Q87] | 54 | 77 | – | – | 4 | 37 | – | –

More lines, main results first:

Row | CDK2 % Inhibition at 0.03 μM (CDK2/Cyclin A; 0.03 μM compound, Table 4) [%] | CDK4 % Inhibition at 0.03 μM ([1]; 0.03 μM compound, Table 4) [%] | CDK2 % Inhibition at 0.03 μM (CDK2/Cyclin A; at 0.03 μM) [%] | CDK4 % Inhibition at 0.03 μM ([1]; at 0.03 μM) [%] | SMILES | HCT-116 % Inhibition at 0.1 μM (HCT-116 cell line; [2]) [%] | HCT-116 % Inhibition at 0.25 μM (HCT-116 cell line; HCT-116, Table 4) [%] | HCT-116 % Inhibition at 0.1 μM (HCT-116 cell line; HCT-116 cells, at 0.1 μM) [%] | HCT-116 5 Inhibition at 0.25 μM (HCT-116 cell line; HCT-116 cells)
12 | – | – | −34 | 3 | Nc1nc(NC2CCN(C(=O)C(c3ccccc3)c3ccccc3)CC2)sc1C(=O)c1c(F)cccc1F [Example R1] | – | – | 0 | 32
13 | – | – | −24 | 13 | COC(=O)CC(=O)N1CCC(Nc2nc(N)c(C(=O)c3c(F)cccc3F)s2)CC1 [Example R2] | – | – | 1 | 49
14 | – | – | −6 | 42 | CCOC(=O)CCCC(=O)N1CCC(Nc2nc(N)c(C(=O)c3c(F)cccc3F)s2)CC1 [Example R3] | – | – | 8 | 37
15 | – | – | −5 | 32 | COC(=O)CCCCC(=O)N1CCC(Nc2nc(N)c(C(=O)c3c(F)cccc3F)s2)CC1 [Example R4] | – | – | 3 | 47
